Results reported in PubChem BioAssay (NCI).
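Each compound was tested at five concentrations against cells in 96-well plates for 48 hours. TGI is the concentration that stops growth completely.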 Where a SMILES comes first, the peptide text is derived from it. The star is where a group is joined. Boc = CC(C)(C)OC(=O)*; Bn = c1ccc(C*)cc1

Legend:
Assay in all cases: inhibition of tumour cell growth, NCI panel, 48 h
COLO 205 colon = system: COLO 205 colon
HCT-15 colon = system: HCT-15 colon
MALME-3M melanoma = system: MALME-3M melanoma
MOLT-4 leukemia = system: MOLT-4 leukemia
NCI-H460 lung = system: NCI-H460 lung
NCI-H522 lung = system: NCI-H522 lung
OVCAR-3 ovarian = system: OVCAR-3 ovarian
SF-295 CNS = system: SF-295 CNS
SK-MEL-5 melanoma = system: SK-MEL-5 melanoma
SN12C renal = system: SN12C renal
SNB-75 CNS = system: SNB-75 CNS
TK-10 renal = system: TK-10 renal
HCC-2998 colon = system: HCC-2998 colon

Row | SMILES | TGI (COLO 205 colon) [µM] | TGI (HCT-15 colon) [µM] | TGI (MALME-3M melanoma) [µM] | TGI (MOLT-4 leukemia) [µM] | TGI (NCI-H460 lung) [µM] | TGI (NCI-H522 lung) [µM] | TGI (OVCAR-3 ovarian) [µM] | TGI (SF-295 CNS) [µM] | TGI (SK-MEL-5 melanoma) [µM] | TGI (SN12C renal) [µM] | TGI (SNB-75 CNS) [µM] | TGI (TK-10 renal) [µM] | TGI (HCC-2998 colon) [µM]
1 | CC1(C)CC2C(/C1=N/O)C1(C)CCCC2(C)C1O (stereo not given) | > 100 | > 100 | > 100 | > 100 | > 100 | > 100 | > 100 | > 100 | > 100 | > 100 | > 100 | > 100 | –
2 | COc1cccc(N2C(=O)C3c4[nH]c5ccc(C)cc5c4C4CCC(C)CC4C3C2=O)c1 (stereo not given) | > 100 | > 100 | > 100 | – | > 100 | – | > 100 | > 100 | > 100 | > 100 | – | > 100 | > 100
3 | CC1(C)N([O-])[N+](=O)C1(Br)c1ccccc1 (stereo not given) | > 100 | > 100 | > 100 | > 100 | > 100 | – | > 100 | > 100 | > 100 | > 100 | > 100 | > 100 | > 100
4 | Oc1ccccc1-c1n[nH]c(-c2ccccc2O)n1 | > 85.8 | > 33.6 | > 100 | > 100 | > 100 | – | – | > 100 | > 100 | > 100 | > 100 | > 100 | > 96.7
5 | Cc1ccc2nc(-c3ccc(-c4nc5ccc(C)cc5o4)c(O)c3)oc2c1 | > 100 | > 100 | – | > 100 | > 100 | – | – | – | > 100 | > 100 | > 100 | > 100 | > 100
6 | COC(=O)C1Cc2c([nH]c3ccccc23)-c2[nH]c3ccccc3c2CC(NC(C)=O)C(=O)NCC(=O)NCC(=O)N1 (stereo not given) | > 100 | > 100 | > 100 | > 100 | > 100 | > 100 | > 100 | > 100 | > 100 | > 100 | > 100 | > 100 | –
7 | CC(C)(C)Cc1cc(O)ccc1O | > 100 | > 100 | > 100 | > 100 | > 100 | 86.7 | > 100 | > 100 | – | > 100 | > 100 | > 100 | > 100
8 | CC(C)N(C(=O)C12C3(C(=O)C(C)(C)C)C4C5(C#N)C3C1(C(=O)C(C)(C)C)C5C42C(=O)C(C)(C)C)C(C)C (stereo not given) | > 100 | > 100 | – | > 100 | > 100 | > 100 | > 100 | > 100 | > 100 | > 100 | 91 | > 100 | > 100
9 | COc1ccc2oc(=O)c(-c3csc(-c4ccccc4)n3)cc2c1 | > 100 | > 100 | – | > 100 | > 100 | – | – | 53.6 | > 100 | – | 71.7 | 50.6 | > 100
10 | Cc1c(-c2ccccc2)c(C#N)c2nnn(C)c(=O)n12 | > 100 | > 100 | > 100 | – | > 100 | > 100 | > 100 | > 100 | > 100 | > 100 | > 100 | > 100 | > 100
11 | Cc1ccc(S(=O)(=O)OI(O)CC(F)(F)F)cc1 | > 100 | > 100 | – | > 100 | > 100 | > 100 | > 100 | > 100 | > 100 | > 100 | > 100 | > 100 | > 100
12 | CC1(Cc2cc3c(cc2C2(c4ccc([N+](=O)[O-])cc4)OCCO2)OCO3)OCCO1 | > 100 | > 100 | > 100 | > 100 | > 100 | 82.3 | > 100 | > 100 | > 100 | > 100 | – | > 100 | > 100
13 | O=C1O/C(=C\C=C\CO)C=C1/C=C/CO | 5.16 | 30.8 | 32.5 | > 100 | > 100 | 22.5 | 48.8 | > 100 | 46 | 80.4 | > 100 | 41 | –
14 | CCN(CC)c1ccc2cc(-c3csc(C)n3)c(=O)oc2c1 | > 100 | > 100 | – | > 100 | > 100 | – | – | > 100 | > 100 | > 100 | 9.42 | > 100 | > 100
15 | CC[C@H]1C=CCC[C@@]2(C[C@@H]3CC[C@H]4[C@@H](C(=O)OCCCCCCCCCCCCCCCC(=O)N(CCCNC(C)=O)C[C@H](CCNC(C)=O)OC(C)=O)[C@@]5(CCC[C@@H](C)O5)NC(=[N+]34)N2)O1 | 2.67 | 3.17 | 2.99 | 2.99 | 3.25 | 2.63 | 2.03 | 3.32 | 2.57 | 3.54 | – | 2.99 | 2.62
16 | CC(=O)[C@]12OC(=O)C3=C1[C@H](CC[C@@H]3C)[C@@H](C)C[C@H]2C=C(C)C | 16.1 | 15.5 | – | 18.6 | 17.3 | 11.4 | 14 | 12.8 | 11.8 | 15.8 | – | – | –
17 | Cc1ccccc1C1CC(=O)CC(c2ccccc2C)C12C(=O)NC(=S)NC2=O (stereo not given) | 42.4 | 56.6 | 78.4 | > 100 | 41.8 | – | 82.8 | > 100 | 32.7 | 67 | 70.7 | > 100 | 25.2
18 | COC1=CC(=O)c2c(n[nH]c2CCNC(=O)OCc2ccccc2)C1=O | 33.9 | 30.8 | 6.5 | 51.4 | 31.3 | 21.1 | 32.2 | 34.9 | 13 | 30.1 | – | 70.6 | 39.6
19 | CC(C)(C)OC(=O)NC(Cc1ccc(OCc2ccccc2)cn1)C(=O)O (stereo not given) | > 100 | > 100 | > 100 | – | > 100 | > 100 | > 100 | > 100 | > 100 | > 100 | – | > 100 | > 100

Row | SMILES | TGI (COLO 205 colon) [µM] | TGI (HCT-15 colon) [µM] | TGI (MALME-3M melanoma) [µM] | TGI (MOLT-4 leukemia) [µM] | TGI (NCI-H460 lung) [µM] | TGI (NCI-H522 lung) [µM] | TGI (OVCAR-3 ovarian) [µM] | TGI (SF-295 CNS) [µM] | TGI (SK-MEL-5 melanoma) [µM] | TGI (SN12C renal) [µM] | TGI (SNB-75 CNS) [µM] | TGI (TK-10 renal) [µM] | TGI (HCC-2998 colon) [µM]
20 | Cn1nc(S(N)(=O)=O)s/c1=N/S(=O)(=O)c1ccc(N)cc1 | > 100 | > 100 | > 100 | > 100 | > 100 | – | > 100 | > 100 | – | – | > 100 | > 100 | > 100
21 | O=C(/C=N/O)Nc1ccc(Cl)c(I)c1 | 31.7 | 63.9 | 64.2 | 56.5 | 47.2 | 34.6 | 60.3 | 94.8 | 35.2 | 63.9 | – | > 100 | 33.7
22 | CN1C(=O)C(C#N)C2C[C@@]1(C)Oc1ccccc12 (stereo not given in full) | > 100 | > 100 | – | > 100 | > 100 | > 100 | > 100 | > 100 | > 100 | – | > 100 | > 100 | > 100
23 | CC(=O)c1sc2n(C)c(=O)c3ccccc3[n+]2c1C | > 100 | > 100 | – | > 100 | > 100 | > 100 | > 100 | > 100 | > 100 | > 100 | – | > 100 | > 100
24 | CC(CC(C)[C@H]1CCC2[C@H]3C(CC(=O)[C@@]21C)[C@@]1(C)CCC(O)C[C@H]1C[C@@H]3O)C(=O)O (stereo not given in full) | > 100 | > 100 | > 100 | > 100 | > 100 | > 100 | – | – | – | > 100 | > 100 | > 100 | > 100
25 | COC(=O)C(CC(C)C)NC(=O)CNC(=O)C(Cc1ccc(OCc2ccccc2)cc1)NC(=O)C(COCc1ccccc1)NC(=O)OC(C)(C)C (stereo not given) (Boc-S(Bn)Y(Bn)GL-OMe; configuration not given here) | > 100 | – | > 100 | > 100 | > 100 | > 100 | > 100 | > 100 | > 100 | > 100 | > 100 | > 100 | –
26 | C=CC[C@@]12CCC(=O)C=C1CCCC2=O | > 100 | > 100 | > 100 | > 100 | > 100 | > 100 | > 100 | > 100 | > 100 | > 100 | – | > 100 | > 100
27 | Cc1cc(C)nc(NS(=O)(=O)c2ccc(Nc3nnc(/C=C/c4c(O)ccc5ccccc45)c(=O)n3N)cc2)n1 | – | 30.9 | 92.7 | > 100 | – | – | 56 | > 100 | – | 73.2 | 55.9 | – | –
28 | O=C(NN1C(=O)C(Cl)C1c1cccc(Cl)c1)c1ccccc1O (stereo not given) | – | > 100 | > 100 | > 100 | > 100 | > 100 | > 100 | > 100 | > 100 | > 100 | > 100 | > 100 | –
29 | COC(=O)/C=C1/OC(c2ccc(C)cc2C)=CC1=O | 30.2 | 29.3 | 29.9 | > 100 | 36.5 | 43.3 | 60.1 | – | 38.2 | – | 29.4 | 31.3 | 30.5
30 | Brc1ccc(N=Nc2ccc3ccccc3n2)cc1 | > 100 | > 100 | > 100 | – | 26.4 | 21.4 | – | > 100 | > 100 | > 100 | 40.6 | 56.6 | –
31 | CC1CN=C(NS(=O)(=O)c2cc(C(=O)Nc3ccccc3)c(Cl)cc2S)NN1 (stereo not given) | > 100 | > 100 | 77 | > 100 | > 100 | 76.1 | > 100 | > 100 | > 100 | > 100 | – | > 100 | > 100
32 | O=C(/C=C/c1ccccc1Br)c1ccccc1 | 28.6 | 6.36 | – | – | 16.3 | 9.73 | 22.1 | 23.4 | 22.6 | 21.7 | 25.4 | 9.83 | 7.68
33 | O=[N+]([O-])c1cc(Cl)ccc1S(=O)(=O)c1ccc(Cl)cc1[N+](=O)[O-] | 30.7 | 33 | 26.6 | 84.4 | 31.5 | 29.9 | 31.1 | 29 | 27.7 | 29.1 | 29.7 | 31.5 | –
34 | C/C(=C(/C)c1cc[n+](C)cc1)c1cc[n+](C)cc1 | > 75 | > 75 | > 75 | > 75 | > 75 | > 75 | > 75 | > 75 | > 75 | > 75 | > 75 | > 75 | –
35 | CCOC(=O)C(C)c1nc2cc(C(F)(F)F)ccc2[nH]c1=O (stereo not given) | > 100 | > 100 | > 100 | > 100 | > 100 | – | > 100 | > 100 | > 100 | > 100 | > 100 | > 100 | > 100
36 | O=c1[nH]cc(COCC(O)CO)c(=O)[nH]1 (stereo not given) | > 100 | > 100 | > 100 | > 100 | > 100 | > 100 | > 100 | > 100 | > 100 | > 100 | > 100 | > 100 | –
37 | CC(C(=O)O)C1Nc2ccccc2NC1=O (stereo not given) | > 100 | > 100 | > 100 | > 100 | > 100 | – | > 100 | > 100 | > 100 | – | > 100 | > 100 | > 100
38 | C=C(C)CCN(C(=O)OC(C)(C)C)c1cc(C(C)C)co1 | > 100 | > 100 | – | 98 | – | – | > 100 | > 100 | > 100 | > 100 | – | > 100 | > 100
